Active and inactive are the calls of the source. The rule behind the calls is not given here.
Each compound was assayed on Rattus norvegicus (assay: Antihyperglycemic activity in Zucker fa/fa rat by oral glucose tolerance test at 3 umol/kg, po).
Type: functional, organism-based

SMILES | Activity
CN(CC#N)C(=O)[C@@H](N)C12CC3CC(CC(O)(C3)C1)C2 | Active

These compounds were tested against Dipeptidyl peptidase 4 (Homo sapiens, UniProt P27487) (assay: Inhibition of DPP4).
Sequence of Dipeptidyl peptidase 4 (P27487 whole entry): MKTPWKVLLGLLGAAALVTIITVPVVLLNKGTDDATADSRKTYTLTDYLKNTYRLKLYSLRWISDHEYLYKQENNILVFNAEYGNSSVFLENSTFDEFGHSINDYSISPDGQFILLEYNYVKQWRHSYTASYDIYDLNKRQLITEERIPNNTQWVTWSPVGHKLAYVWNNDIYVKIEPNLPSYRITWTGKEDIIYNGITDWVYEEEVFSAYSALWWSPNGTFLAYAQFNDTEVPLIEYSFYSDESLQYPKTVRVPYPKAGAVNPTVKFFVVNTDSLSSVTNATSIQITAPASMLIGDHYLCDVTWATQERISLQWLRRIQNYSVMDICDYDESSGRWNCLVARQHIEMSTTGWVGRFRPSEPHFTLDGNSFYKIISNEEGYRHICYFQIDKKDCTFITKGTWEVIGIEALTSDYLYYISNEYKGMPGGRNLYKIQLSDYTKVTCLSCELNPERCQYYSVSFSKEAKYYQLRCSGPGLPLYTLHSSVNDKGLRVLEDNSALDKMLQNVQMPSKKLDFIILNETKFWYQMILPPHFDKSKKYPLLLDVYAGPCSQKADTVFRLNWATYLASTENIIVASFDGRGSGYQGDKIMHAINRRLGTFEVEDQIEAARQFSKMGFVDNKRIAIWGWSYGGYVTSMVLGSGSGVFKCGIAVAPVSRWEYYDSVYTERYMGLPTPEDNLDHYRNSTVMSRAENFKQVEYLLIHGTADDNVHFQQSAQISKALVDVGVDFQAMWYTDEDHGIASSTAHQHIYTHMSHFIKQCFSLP

SMILES | Ki [µM]
CC(C)(C#N)NC(=O)[C@@H](N)C12CC3CC(CC(C3)C1)C2 | > 10
N#CCNC(=O)[C@@H](N)C12CC3CC(CC(C3)C1)C2 | > 10
CC(C)(C#N)NC(=O)[C@@H](N)C(C)(C)C | > 10
N#CCN(Cc1ccccc1)C(=O)[C@@H](N)C12CC3CC(CC(C3)C1)C2 | > 10
CCCCN(CC#N)C(=O)[C@@H](N)C(C)(C)C | > 10

— ChEMBL document CHEMBL1139028, “Seco-prolinenitrile inhibitors of dipeptidyl peptidase IV define minimal pharmacophore requirements at P1” (Bioorg Med Chem Lett, 2006)
